Test results published in US20110212218A1, “Method for modulating animal digestive tract microbiota and feed composition comprising bark extract” (UPM-KYMMENE CORPORATION, priority 2009, published 2011).
Read-outs that look alike come from different tables or passages of the source.

Test system: ileal microbial metabolism
Experiment: Broiler ileal simulation in vitro, SCFA production
Type: cell-based, broilers

Structure (SMILES) | total production of short chain fatty acids (SCFA) (ileal simulation, 12 hours (FIG. 6)) | total production of short chain fatty acids (SCFA)
CC[C@@H](C(=O)O)[C@@H]1O[C@@H]([C@@H](C)[C@H](O)[C@H](C)C(=O)[C@H](CC)[C@H]2O[C@]3(C=C[C@@H](O)[C@]4(CC[C@@](C)([C@H]5CC[C@](O)(CC)[C@H](C)O5)O4)O3)[C@H](C)C[C@@H]2C)[C@@H](C)C[C@@H]1C [Narasin] | decreased | –
C=C(C)[C@@H]1CC[C@]2(CO)CC[C@]3(C)[C@H](CC[C@@H]4[C@@]5(C)CC[C@H](O)C(C)(C)[C@@H]5CC[C@]43C)[C@@H]12 [fraction C, betulinol] | – | increased
